The source of these data is patent US9598387B2 (Southern Research Institute, priority 2012, dated 2017).

Test [1] addresses T1, human D3 dopamine receptor (Homo sapiens (Human), UniProt P35462). Description: Radioligand binding (125I-IABN competition), D3. The conditions noted are these: for Ki: 125I-IABN competition, HEK cell membranes expressing human D3; for D2/D3 (D3 selectivity ratio, D2 Ki/D3 Ki): calculated D2 Ki/D3 Ki. As for the experimental part: (§1) The affinities of the target compounds were determined using radioligand binding experiments. […] Competition curves were modeled for a single site. Data from competition dose-response curves were analyzed using Tablecurve program (Jandel). IC50 values were converted to equilibrium dissociation constants (Ki values) using the Cheng and Prusoff correction.

The target of test [2] is human D2-long dopamine receptor (Homo sapiens (Human), UniProt P14416). Nature of the test: Radioligand binding (125I-IABN competition), D2. The conditions noted are these: HEK cell membranes expressing human D2-long. The procedure:
as §1

The target in test [3] is T1, human D3 dopamine receptor. Description: Whole Cell Adenylyl Cyclase Assay, D3. The conditions noted are these: inhibition of forskolin (100 μM) stimulated cAMP, normalized to quinpirole; compound conc ≥10× Ki (per compound); mean ± S.E.M. Type of test: cell-based. As for the experimental part: (§2) The intrinsic activity of the compounds was evaluated by determining their ability to inhibit forskolin-dependent (100 μM) stimulation of adenylyl cyclase activity using a whole cell assay. A whole cell-cyclic AMP accumulation assay was performed with stably transfected HEK cells expressing human D2 or D3 dopamine receptors. This assay is an adaptation of an earlier published method (Su et al., Cyclic Nucleotide Res. 1976, 2, 257-285). Details regarding this method have been published (Chu, W. et al. Bioorg. Med. Chem. 2005, 13, 77-87; Taylor, M. et al. Synapse 2010, 64, 251-266). Confluent (60-80%) HEK cells transfected with recombinant D2-like dopamine receptors were grown in DMEM/10% fetal calf serum containing geneticin in […] flasks. The endogenous ATP pool is radioactively labeled by preincubating the cells in serum-free DMEM/25 mM Hepes medium containing 2 μCi/mL of [2,8-^3H]-adenine (20-Ci/mmol) in a 5% CO2 incubator at 37° C. for 75 min. The radioactive medium was removed by aspiration. Serum-free DMEM (5.6 mL) containing 25 mM HEPES, pH 7.4, and 0.1 mM of the phosphodiesterase inhibitor isobutylmethylxanthine was added to the flask. A […] aliquot of cells was removed and added to 50 μL of forskolin (100 μM) and 50 μL of test drug or quinpirole in DMEM-HEPES. The cells were incubated for 20 min at 37° C. (vortexing every 5 min). The reaction was terminated by the addition of 0.5 mL of 10% trichloroacetic acid (w/v) containing 1.0 mM unlabeled cyclic AMP as a recovery standard. Both the [^3H]-cyclic AMP and the [^3H]-ATP fractions were collected following separation using columns of Dowex AG-50W-X4 and alumina. The final yield of [^3H]-cyclic AMP is corrected for column recovery of unlabeled cyclic AMP determined spectrophotometrically (OD259). The results are reported as percent conversion of [^3H]-ATP into [^3H]-cyclic AMP. The values for the percent inhibition are reported as the actual percent of inhibition of the ^3H-cAMP accumulation relative to the assay performed in the absence of a test compound, minus basal activity. […] The percent maximum response is the value for the inhibition normalized to the value for the full agonist quinpirole.

The target in test [4] is human D2 dopamine receptors (Homo sapiens (Human), UniProt P14416). Nature of the test: Whole Cell Adenylyl Cyclase Assay, D2. Type of test: cell-based. The conditions noted are these: inhibition of forskolin (100 μM) stimulated cAMP, normalized to quinpirole; compound conc ≥10× Ki (per compound); mean ± S.E.M. As for the experimental part:
as §2

The target in test [5] is human D2 receptors (Homo sapiens (Human), UniProt P14416). Nature of the test: D2 Mitogenesis Functional Assay (3H-thymidine uptake, CHOp-D2 cells). Type of test: cell-based. The settings on record: for Emax at 10 µM: % maximum stimulation vs quinpirole (100%), read-out: D2 Agonist Emax; for Emax at 10 µM / D2 Antagonist Imax: at 10 μM; for D2 Antagonist Imax: inhibition of quinpirole stimulation of mitogenesis; for IC50: read-out: D2 Antagonist IC50. As for the experimental part: (§3) These assays are based on ^3H-thymidine uptake by cells that are proliferating.
CHO cells expressing human D2 receptors (CHOp-D2 cells) were maintained in alpha-MEM with 10% FCS, 0.05% pen-strep, and 200 μg/mL of G418. […] The cells were incubated at 37° C. in alpha-MEM with 10% FCS. After 48-72 hours, the cells were rinsed twice with serum-free alpha-MEM and incubated for 24 hours at 37° C. Serial dilutions of test compounds were made by the Biomek robotics system in serum-free alpha-MEM. In the functional assay for agonism, the medium was removed and replaced with 100 μL of test compound in serum-free alpha-MEM. In the antagonist assay, the serial dilution of the putative antagonist test compound was added in 90 μL (1.1× of final concentration) and 300 nM quinpirole (30 nM final) was added in […]. After another 24-hour incubation at 37° C., 0.25 μCi of [^3H]thymidine in alpha-MEM supplemented with 10% FCS was added to each well and the plates were further incubated for 2 hours at 37° C. The cells were trypsinized by addition of 10× trypsin solution (1% trypsin in calcium-magnesium-free phosphate-buffered saline) and the plates were filtered and counted as usual. Quinpirole was run as an internal control and dopamine was included for comparative purposes. Butaclamol was run as the standard antagonist.

The target in test [6] is T2, D3R (Homo sapiens (Human), UniProt P35462). Description: D3 Mitogenesis Functional Assay (3H-thymidine uptake, CHOp-D3 cells). Type of test: cell-based. The conditions noted are these: for EC50: CHOp-D3 cells, stimulation of mitogenesis, read-out: D3 Agonist EC50; for Emax at 10 µM: % maximum stimulation vs quinpirole (100%), read-out: D3 Agonist Emax; for D3 Antagonist Imax: inhibition of quinpirole stimulation of mitogenesis; for IC50: read-out: D3 Antagonist IC50. As for the experimental part: as §3
CHO cells expressing human D3 receptors (CHOp-D3 cells) were maintained in alpha-MEM with 10% fetal bovine serum (FBS, Atlas Biologicals), 0.05% pen-strep, and 200 μg/ml of G418. […] The cells are incubated at 37° C. in alpha-MEM with 10% FBS. After 48-72 hours, the cells are rinsed twice with serum-free alpha-MEM and incubated for 24 hours at 37° C. Serial dilutions of test compounds were made by the Biomek robotics system in serum-free alpha-MEM. In the functional assay for agonism, the medium is removed and replaced with 100 μL of test compound in serum-free alpha-MEM. In the antagonist assay, the serial dilution of the putative antagonist test compound was added in 90 μL (1.1× of final concentration) and 300 nM quinpirole (30 nM final) was added in 10 uL. After another 16-hour incubation at 37° C., 0.25 μCi of [^3H]thymidine in alpha-MEM supplemented with 10% FBS was added to each well and the plates were further incubated for 2 hours at 37° C. The cells were trypsinized by addition of 10× trypsin solution (1% trypsin in calcium-magnesium-free phosphate-buffered saline) and the plates were filtered and counted as usual. Quinpirole was run as an internal control and dopamine was included for comparative purposes. Butaclamol was run as the standard antagonist. Data were analyzed using GraphPAD Prism and agonist potency was expressed as EC50 values or % stimulation and antagonist potency was expressed as IC50 values. In these assays, based on the % maximum stimulation as compared to the standard agonist quinpirole (100%) the compounds were classified into following categories: ≧90% full agonist; 70-90% partial to full agonist; <70% partial agonist; 0-20% potential antagonist.

Test [7] concerns the target T2, D3R. Description: β-Arrestin Recruitment Assay, U2OS DRD3. Type of test: cell-based. The conditions noted are these: for IC50: antagonist vs EC80 8 nM PD128907, U2OS DRD3 cells, read-out: D3 IC50; for D2 IC50/D3 IC50: ratio of β-arrestin IC50 values. As for the experimental part:
(§4) Antagonist potency of the compounds against agonist induced recruitment of β-arrestin by D3R and D2LR was measured using DiscoverRx PathHunter eXpress kits. […] After incubation at 37° C. for 90 min, the DiscoveRx detection reagent was added, the plates were incubated at room temperature for 60 min and the luminescence was measured on a Synergy 4 plate reader (BioTek). The data were plotted and the agonist EC80 values were calculated using GraphPad Prism software. For antagonist activity, the cells were plated as described above and treated with multiple concentrations (starting from 500 nM, half log dilution, 10 dose points) of the test compounds in Plating Reagent with 0.1% DMSO.
For orientation: Activated receptors often draw arrestin, which recruitment assays turn into a signal.

For test [8], the target named is D2LR (Homo sapiens (Human), UniProt P14416). Nature of the test: β-Arrestin Recruitment Assay, CHO-K1 DRD2L. Type of test: cell-based. The settings on record: antagonist vs EC80 6 nM Pergolide, CHO-K1 DRD2L cells; read-out: D2 IC50. The procedure: as §4

Bounds are passed on as bounds.

Sequence of human D2 receptors (P14416 whole entry): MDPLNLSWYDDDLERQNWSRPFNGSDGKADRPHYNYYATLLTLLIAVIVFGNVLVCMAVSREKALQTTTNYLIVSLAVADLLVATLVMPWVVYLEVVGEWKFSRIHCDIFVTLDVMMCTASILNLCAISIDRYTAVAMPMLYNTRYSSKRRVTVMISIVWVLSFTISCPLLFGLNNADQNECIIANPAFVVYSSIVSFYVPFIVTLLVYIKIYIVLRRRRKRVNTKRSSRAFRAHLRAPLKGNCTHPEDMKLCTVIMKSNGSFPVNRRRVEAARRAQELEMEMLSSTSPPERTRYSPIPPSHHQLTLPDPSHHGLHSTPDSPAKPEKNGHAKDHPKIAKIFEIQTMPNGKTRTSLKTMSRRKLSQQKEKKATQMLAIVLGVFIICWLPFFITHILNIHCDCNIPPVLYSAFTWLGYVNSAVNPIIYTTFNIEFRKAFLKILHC
Sequence of D2LR (P14416 whole entry): as above
Sequence of human D2-long dopamine receptor (P14416 whole entry): as above
Sequence of human D2 dopamine receptors (P14416 whole entry): as above
T2 sequence (P35462 whole entry): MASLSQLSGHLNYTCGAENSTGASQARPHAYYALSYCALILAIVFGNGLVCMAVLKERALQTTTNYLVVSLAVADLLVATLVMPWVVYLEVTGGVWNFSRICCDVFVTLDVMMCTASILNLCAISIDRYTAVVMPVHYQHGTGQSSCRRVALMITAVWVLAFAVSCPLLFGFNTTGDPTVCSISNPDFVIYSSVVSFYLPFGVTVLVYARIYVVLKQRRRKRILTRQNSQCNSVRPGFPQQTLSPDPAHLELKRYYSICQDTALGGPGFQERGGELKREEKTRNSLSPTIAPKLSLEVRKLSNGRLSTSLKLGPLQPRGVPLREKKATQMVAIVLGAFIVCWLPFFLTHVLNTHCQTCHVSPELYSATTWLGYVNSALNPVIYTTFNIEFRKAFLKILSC
T1 sequence (P35462 whole entry): as above

A word on the Ki: it is the equilibrium dissociation constant of an inhibitor or competing ligand from its target. A lower Ki goes with higher affinity. A word on the EC50: it is the concentration giving half of the maximal effect. What is called Emax is the greatest response seen or fitted, relative to the assay's reference. What is called IC50 is the point on the concentration scale where inhibition reaches its midpoint. `CC(C)(C)c1nc(N2CCN(CCCCNC(=O)N3CCN(c4ccccn4)CC3)CC2)cc(C(F)(F)F)n1` [Compound 29, N-(4-(4-(2-(tert-Butyl)-6-(trifluoromethyl)pyrimidin-4-yl)piperazin-1-yl)butyl)-4-(pyridin-2-yl)piperazine-1-carboxamide]: in test [1], the Ki was determined as 8 ± 1.6 nM and the “D2/D3 (D3 selectivity ratio, D2 Ki/D3 Ki)” value is 92. The compound further showed an inhibition constant (Ki) in test [2] of 740 ± 98.3 nM. In test [3], the “D3 Cyclase % Inhibition Normalized” value is 60.9 ± 4.0%. Moreover, in test [4], the “D2 Cyclase % Inhibition Normalized” value is reported as 21.8 ± 6.6%. The EC50 in test [5] (CHOp-D2 cells, stimulation of mitogenesis, read-out: D2 Agonist EC50) was more than 10000 nM. Besides, in test [5], the Emax at 10 µM was less than 1%, the “D2 Antagonist Imax” value came to 99.9% at 10 μM and the half-inhibitory concentration (IC50) turned out to be 232 ± 61 nM. For the same compound, in test [6], the EC50 is more than 10000 nM, the Emax at 10 µM is less than 5%, the “D3 Antagonist Imax” value is 83.8% and the IC50 was 54.7 ± 9.4 nM.

Consider `O=C(NCCCCN1CCN(c2ccnc3ccccc23)CC1)C1CCC(c2ccccc2)CC1` (centres unmarked) [Compound 104, 4-Phenyl-N-(4-(4-(quinolin-4-yl)piperazin-1-yl)butyl)cyclohexanecarboxamide], for which, in test [1], the Ki is 35.3 ± 4.8 nM and the “D2/D3 (D3 selectivity ratio, D2 Ki/D3 Ki)” value was 146. Besides, the Ki in test [2] turned out to be 5160 ± 822 nM. In addition, in test [7], the half-maximal inhibitory concentration (IC50) was determined as 33.7 ± 14.3 nM and the “D2 IC50/D3 IC50” value is more than 15. In addition, in test [3], the “D3 Cyclase % Inhibition Normalized” value was found to be 53.4 ± 13.0%. Further, in test [8], the IC50 is more than 500 nM.

On to `CN(C)Cc1cccc2nc(C(=O)NCCCCN3CCN(c4cc(C(F)(F)F)nc(C(C)(C)C)n4)CC3)cn12` [Compound 121, N-(4-(4-(2-(tert-Butyl)-6-(trifluoromethyl)pyrimidin-4-yl)piperazin-1-yl)butyl)-5-((dimethylamino)methyl)imidazo[1,2-a]pyridine-2-carboxamide], for which, in test [1], the affinity corresponds to a Ki of 27.3 ± 3.4 nM and the “D2/D3 (D3 selectivity ratio, D2 Ki/D3 Ki)” value is reported as 11. Further, the Ki in test [2] came out at 298 nM. In test [7], the IC50 stood at 28.8 ± 2.7 nM and the “D2 IC50/D3 IC50” value stood at 10. Further, the IC50 in test [8] came out at 281 ± 43 nM.

On to `O=C(NCCCCN1CCN(c2cccc(Cl)c2Cl)CC1)N1CCN(c2ccccc2)CC1` [Compound 3, N-(4-(4-(2,3-Dichlorophenyl)piperazin-1-yl)butyl)-4-phenylpiperazine-1-carboxamide], for which, in test [1], the Ki worked out at 0.39 ± 0.1 nM and the “D2/D3 (D3 selectivity ratio, D2 Ki/D3 Ki)” value is listed as 54. Moreover, the affinity in test [2] corresponds to a Ki of 21 ± 2.4 nM. Further, the “D3 Cyclase % Inhibition Normalized” value in test [3] came to 66.4 ± 16.4%. In test [4], the “D2 Cyclase % Inhibition Normalized” value came out at 61.0 ± 4.5%. In test [5], the maximal effect (Emax) at 10 µM was less than 20%, the “D2 Antagonist Imax” value is reported as 91.0% at 10 μM and the IC50 was 14.6 ± 5.5 nM. In test [6], the Emax at 10 µM is less than 20%, the “D3 Antagonist Imax” value was 93.1% and the IC50 came to 3.43 ± 0.29 nM.

On to `N#Cc1cc(N2CCN(CCCCNC(=O)N3CCN(c4ccccc4)CC3)CC2)cc(C(F)(F)F)c1` [Compound 4, N-(4-(4-(3-Cyano-5-(trifluoromethyl)phenyl)piperazin-1-yl)butyl)-4-phenylpiperazine-1-carboxamide], for which the inhibition constant Ki in test [1] is 4.1 ± 1 nM; in test [2], 294 ± 59.6 nM. In test [1], the “D2/D3 (D3 selectivity ratio, D2 Ki/D3 Ki)” value is reported as 72. In addition, in test [3], the “D3 Cyclase % Inhibition Normalized” value was 8.2 ± 4.2%. In test [4], the “D2 Cyclase % Inhibition Normalized” value is listed as −9.2 ± 8.3%.

Consider `CC(C)(C)c1nc(N2CCN(CCCCNC(=O)N3CCC(c4ccccc4)CC3)CC2)cc(C(F)(F)F)n1` [Compound 48, N-(4-(4-(2-(tert-Butyl)-6-(trifluoromethyl)pyrimidin-4-yl)piperazin-1-yl)butyl)-4-phenylpiperidine-1-carboxamide], for which, in test [1], the inhibition constant Ki is 11 ± 2.4 nM and the “D2/D3 (D3 selectivity ratio, D2 Ki/D3 Ki)” value was 147. In addition, in test [2], the Ki came to 1620 ± 402 nM. For the same compound, in test [7], the IC50 came out at 28.1 ± 4.9 nM and the “D2 IC50/D3 IC50” value was more than 18. The “D3 Cyclase % Inhibition Normalized” value in test [3] came out at 64.3 ± 10.4%. In addition, in test [8], the IC50 is more than 500 nM. Further, in test [6], the concentration for a half-maximal effect (EC50) was more than 10000 nM, the Emax at 10 µM is less than 5%, the “D3 Antagonist Imax” value is 81.2% and the IC50 was 2000 ± 480 nM.
